The values that follow come from US20100305173A1, “HYDROXYETHYLAMINO SULFONAMIDE DERIVATIVES” (CoNCERT Pharmaceuticals, Inc., priority 2009, published 2010).

Read-outs that look alike come from different tables or passages of the source.

This series in a line: Metabolic stability of test compounds in human liver microsomes. The series is classed as in vitro ADME. To be noted: for half-life: human, liver microsomes, pH 7.4, half-life in human liver microsomes. How it is done: Determination of Metabolic Stability of Test Compounds in
Human Liver Microsomes. Human liver microsomes (20 mg/mL) were obtained from Xenotech, LLC (Lenexa, Kans.). β-nicotinamide adenine dinucleotide phosphate, reduced form (NADPH), magnesium chloride (MgCl2), and dimethyl sulfoxide (DMSO) were purchased from Sigma-Aldrich.
7.5 mM stock solutions of test compounds were prepared in DMSO. […] The diluted microsomes (375 μL) were added to wells of a 96-well deep-well polypropylene plate in triplicate. […] Reactions were initiated by addition of 125 μL of pre-warmed NADPH solution. The final reaction volume was 0.5 mL and contained 0.5 mg/mL human liver microsomes, 0.25-1.0 μM test compound, and 2 mM NADPH in 0.1 M potassium phosphate buffer, pH 7.4, and 3 mM MgCl2. The reaction mixtures were incubated at 37° C., and 50 μL aliquots were removed at 0, 5, 10, 20, and 30 minutes and added to shallow-well 96-well plates which contained 50 μL of ice-cold ACN with internal standard to stop the reactions. The plates were stored at 4° C. for 20 minutes after which 100 μL of water was added to the wells of the plate before centrifugation to pellet precipitated proteins. Supernatants were transferred to another 96-well plate and analyzed for amounts of parent compound remaining by LC-MS/MS using an Applied Bio-systems API 4000 mass spectrometer. 7-ethoxycoumarin (1 μM) was used as the positive control substrate.
Data analysis: The in vitro half-lives (tii2s) for test compounds were calculated from the slopes of the linear regression of % parent remaining (ln) vs incubation time relationship using the following formula: […]
Data analysis was performed using Microsoft Excel Software.
FIG. 1, FIG. 2, FIG. 3, Table 2, Table 3 and Table 4 show the results of this experiment.
(In general: Liver microsomes are vesicles of endoplasmic reticulum, rich in cytochrome P450 enzymes.)

Where [1] appears, read: Table 3, Exp C, read-out: T1/2 (min) Exp C.
[2] abbreviates: Table 3, Exp D, read-out: T1/2 (min) Exp D.
Where [3] appears, read: Table 3, calculated average of Exp C and D, read-out: T1/2 (min) Average.
Where [4] appears, read: Table 4, Expt I, read-out: T1/2 (min) Expt I.
[5] abbreviates: Table 4, Expt J, read-out: T1/2 (min) Expt J.
The mark [6] stands for this setting: Table 4, calculated average of Expt E-J, read-out: T1/2 (min) Average ± SD.
Where [7] appears, read: Table 2, Exp A, read-out: T1/2 (min) Exp A.
Where [8] appears, read: Table 2, Exp B, read-out: T1/2 (min) Exp B.
The mark [9] stands for this setting: Table 2, calculated average of Exp A and B, read-out: T1/2 (min) Average.
[10] abbreviates: Table 4, Expt G, read-out: T1/2 (min) Expt G.
The mark [11] stands for this setting: Table 4, Expt H, read-out: T1/2 (min) Expt H.

Take `CC(C)CN(C[C@@H](O)[C@H](Cc1ccccc1)NC(=O)O[C@H]1CO[C@H]2OCC[C@H]21)S(=O)(=O)c1ccc2ncsc2c1` [Compound 302, reference compound]: the half-life is, setting by setting: under setting [1], 8.2 min; under setting [2], 8.7 min; under setting [3], 8.5 min; under setting [4], 5.6 min; under setting [5], 6.4 min; under setting [6], 6 min.
Take `[2H]C([2H])([2H])C([2H])(C([2H])([2H])[2H])C([2H])([2H])N(C[C@@H](O)[C@H](Cc1ccccc1)NC(=O)O[C@]1([2H])[C@@H]2CCO[C@@H]2OC1([2H])[2H])S(=O)(=O)c1ccc(NC(C)=O)cc1` [Compound 227, (3R,3aS,6aR)-hexahydrofuro[2,3-b]furan-3-yl-((2S,3R)-4-(4-acetamido-N-isobutylphenylsulfonamido)-3-hydroxy-1-phenylbutan-2-yl) carbamate-d12]: the half-life is 9 min under setting [7]; 4.3 min under setting [8]; 6.6 min under setting [9]; 5.7 min under setting [10]; 5.3 min under setting [11]; 7.2 min under setting [4]. Moreover, the half-life is 7.1 min under setting [5] and 6.3 ± 1 min under setting [6].
On to `[2H]C([2H])([2H])C([2H])(C([2H])([2H])[2H])C([2H])([2H])N(C[C@@H](O)[C@H](Cc1ccccc1)NC(=O)O[C@]1([2H])[C@@H]2CCO[C@@H]2OC1([2H])[2H])S(=O)(=O)c1ccc2occ(CNC(=O)OCC)c2c1` [Compound 235, ((5-(N-((2R,3S)-3-(((((3R,3aS,6aR)-hexahydrofuro[2,3-b]furan-3-yl)oxy)carbonyl)amino)-2-hydroxy-4-phenylbutyl)-isobutylsulfamoyl)benzofuran-3-yl)methyl)carbamic acid ethyl ester-d12], for which the half-life was 2.4 min under setting [7], 1.5 min under setting [8] and 2 min under setting [9].
For the compound `[2H]C([2H])([2H])C([2H])(C([2H])([2H])[2H])C([2H])([2H])N(C[C@@H](O)[C@H](Cc1ccccc1)NC(=O)O[C@]1([2H])[C@@H]2CCO[C@@H]2OC1([2H])[2H])S(=O)(=O)c1ccc2occc2c1` [Compound 106, (3R,3aS,6aR)-hexahydrofuro[2,3-b]furan-3-yl-((2S,3R)-3-hydroxy-4-(N-isobutylbenzofuran-5-sulfonamido)-1-phenylbutan-2-yl)carbamate-d12], the “increase in stability over darunavir and brecanavir” value (human liver microsomes, versus darunavir and brecanavir, in words) was “very significant increase in stability”. Also, the half-life is 31.2 min (Table 4, Expt E, read-out: T1/2 (min) Expt E); 21.2 min (Table 4, Expt F, read-out: T1/2 (min) Expt F); 18.1 min under setting [11]; 21.5 min under setting [4]; 46.7 min under setting [5]; 23 ± 5.7 min under setting [6].
As to `[2H]C([2H])([2H])C([2H])(C([2H])([2H])[2H])C([2H])([2H])N(C[C@@H](O)[C@H](Cc1ccccc1)NC(=O)O[C@]1([2H])[C@H]2[C@H](OC([2H])([2H])C2([2H])[2H])OC1([2H])[2H])S(=O)(=O)c1ccc2ncsc2c1` [Compound 237, (3R,3aS,6aR)-hexahydrofuro[2,3-b]furan-3-yl-((2S,3R)-3-hydroxy-4-(N-isobutylbenzo[d]thiazole-6-sulfonamido)-1-phenylbutan-2-yl)carbamate-d16], the half-life reads like this: under setting [1], 8.3 min; under setting [2], 7.9 min; under setting [3], 8.1 min.
For `[2H]C([2H])([2H])C([2H])(C([2H])([2H])[2H])C([2H])([2H])N(C[C@@H](O)[C@H](Cc1ccccc1)NC(=O)O[C@]1([2H])[C@@H]2CCO[C@@H]2OC1([2H])[2H])S(=O)(=O)c1ccc(NC(=O)C2CC2)cc1` [Compound 233, (3R,3aS,6aR)-hexahydrofuro[2,3-b]furan-3-yl-((2S,3R)-4-(4-(cyclopropanecarbox-amido)-N-isobutylphenylsulfonamido)-3-hydroxy-1-phenylbutan-2-yl)carbamate-d12], the half-life reads like this: under setting [7], 4.7 min; under setting [8], 2.4 min; under setting [9], 3.5 min.
In the case of `[2H]C([2H])([2H])C([2H])(C([2H])([2H])[2H])C([2H])([2H])N(C[C@@H](O)[C@H](Cc1ccccc1)NC(=O)O[C@]1([2H])[C@@H]2CCO[C@@H]2OC1([2H])[2H])S(=O)(=O)c1ccc2ncsc2c1` [Compound 229, (3R,3aS,6aR)-hexahydrofuro[2,3-b]furan-3-yl-((2S,3R)-3-hydroxy-4-(N-isobutylbenzo[d]thiazole-6-sulfonamido)-1-phenylbutan-2-yl)carbamate-d12], the half-life is 8.7 min under setting [1]; 8.6 min under setting [2]; 8.6 min under setting [3]; 6.4 min under setting [10]; 6.7 min under setting [11]; 6 min under setting [4]. For the same compound, the half-life under setting [5] was 5.8 min and the half-life under setting [6] was 6.2 ± 0.4 min.
With `CCOC(=O)NCc1coc2ccc(S(=O)(=O)N(CC(C)C)C[C@@H](O)[C@H](Cc3ccccc3)NC(=O)O[C@H]3CO[C@H]4OCC[C@H]43)cc12` [Compound 301, reference compound], the half-life under setting [7] worked out at 1.9 min, the half-life under setting [8] came out at 1.5 min and the half-life under setting [9] is 1.7 min.
For the compound `CC(C)CN(C[C@@H](O)[C@H](Cc1ccccc1)NC(=O)O[C@H]1CO[C@H]2OCC[C@H]21)S(=O)(=O)c1ccc2occc2c1` [Compound 303, reference compound], the half-life runs as follows: under setting [4], 21.1 min; under setting [5], 19.9 min; under setting [6], 20.5 min.
For `Cc1nc(COc2ccc(C[C@H](NC(=O)O[C@H]3CO[C@H]4OCC[C@H]43)[C@H](O)CN(CC(C)C)S(=O)(=O)c3ccc4c(c3)OCO4)cc2)cs1` [Brecanavir, N-[3-[N-(1,3-Benzodioxol-5-ylsulfonyl)-N-isobutylamino]-2(R)-hydroxy-1-(S)-[4-(2-methylthiazol-4-ylmethoxy)benzyl]propyl]carbamic acid (3R,3aS,6aR)-perhydrofuro[2,3-b]furan-3-yl ester, reference compound] the same measures were 2 min, 2 min and 2 min.
Consider `[2H]C([2H])(N(C[C@@H](O)[C@H](Cc1ccccc1)NC(=O)O[C@]1([2H])[C@@H]2CCO[C@@H]2OC1([2H])[2H])S(=O)(=O)c1ccc(NC(C)=O)cc1)C1([2H])C([2H])([2H])C([2H])([2H])C([2H])([2H])C1([2H])[2H]` [Compound 236, (3R,3aS,6aR)-hexahydrofuro[2,3-b]furan-3-yl-((2S,3R)-4-(4-acetamido-N-(cyclopen-tylmethyl)phenylsulfonamido)-3-hydroxy-1-phenylbutan-2-yl)carbamate-d14], for which the half-life reads like this: under setting [7], 7.1 min; under setting [8], 3.6 min; under setting [9], 5.4 min.
Take `[2H]C([2H])([2H])C([2H])(C([2H])([2H])[2H])C([2H])([2H])N(C[C@@H](O)[C@H](Cc1ccccc1)NC(=O)O[C@@]1([2H])C([2H])([2H])O[C@@]2([2H])OC([2H])([2H])C([2H])([2H])[C@]21[2H])S(=O)(=O)c1ccc2ncsc2c1` [Compound 230, (3R,3aS,6aR)-hexahydrofuro[2,3-b]furan-3-yl-((2S,3R)-3-hydroxy-4-(N-isobutylbenzo[d]thiazole-6-sulfonamido)-1-phenylbutan-2-yl)carbamate-d18]: under “human liver microsomes, average of two runs, versus darunavir”, the “increase in stability over darunavir” value is on record as 36%. Besides, the “increase in stability over 302, its non-deuterated counterpart” value (human liver microsomes, versus 302, in words) is reported as “an even greater increase in stability”. Also, the half-life is 11.7 min under setting [1], 15.1 min under setting [2] and 13.4 min under setting [3].
